Test results reported in BindingDB's records for patent US8802711 (Abbvie, 2014).

Biological target: Transient receptor potential cation channel subfamily V member 1 (Homo sapiens, UniProt Q8NER1)
Assay: FLIPR Assay
Method: All compounds were tested over a 12-point one-third-log concentration range. Compound stocks, 10 mM, were prepared in DMSO, and diluted serially across a 384-well plate using a Bravo BenchCel workstation (Agilent Technologies, Santa Clara, Calif.).

Sequence of Transient receptor potential cation channel subfamily V member 1 (Q8NER1 whole entry): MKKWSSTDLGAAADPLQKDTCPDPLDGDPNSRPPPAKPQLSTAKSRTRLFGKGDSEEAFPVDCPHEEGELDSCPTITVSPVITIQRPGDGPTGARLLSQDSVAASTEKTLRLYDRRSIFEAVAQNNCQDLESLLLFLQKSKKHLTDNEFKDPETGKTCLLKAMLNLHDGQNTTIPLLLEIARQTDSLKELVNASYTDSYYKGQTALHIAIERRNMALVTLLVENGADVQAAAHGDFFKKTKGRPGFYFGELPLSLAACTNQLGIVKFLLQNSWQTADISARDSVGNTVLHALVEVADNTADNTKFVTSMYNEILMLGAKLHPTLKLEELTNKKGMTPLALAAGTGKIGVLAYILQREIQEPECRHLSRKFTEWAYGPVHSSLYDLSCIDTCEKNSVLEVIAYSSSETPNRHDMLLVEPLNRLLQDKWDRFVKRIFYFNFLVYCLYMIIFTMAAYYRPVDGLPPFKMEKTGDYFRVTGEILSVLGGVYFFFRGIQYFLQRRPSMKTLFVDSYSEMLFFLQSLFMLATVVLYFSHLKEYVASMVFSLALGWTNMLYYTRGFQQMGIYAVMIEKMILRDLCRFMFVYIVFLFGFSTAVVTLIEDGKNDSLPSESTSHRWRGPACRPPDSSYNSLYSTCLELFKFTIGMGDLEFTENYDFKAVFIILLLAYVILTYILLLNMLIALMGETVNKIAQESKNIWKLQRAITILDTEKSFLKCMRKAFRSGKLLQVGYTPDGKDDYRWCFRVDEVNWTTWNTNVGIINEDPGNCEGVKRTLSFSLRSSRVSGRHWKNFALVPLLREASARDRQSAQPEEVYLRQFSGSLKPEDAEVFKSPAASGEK

SMILES: Cc1cccnc1N1CC=C(C(=O)Nc2ccc(C(=O)NC(F)(F)F)cc2)CC1 [US8802711, L]
- IC50: 100 nM
